# Literature values, collected in patent US5811459A, “Ortho substituted aromatic compounds useful as antagonists of the pain enhancing effects of E-type prostaglandins” (Zeneca Limited, priority 1994, dated 1998).
# Columns and labels:
# [1] = tested on: cat trachea or chick ileum; settings: other tissues such as the cat trachea or chick ileum
# [2] = tested on: guinea pig ileum or dog fundus; settings: some tissues such as guinea pig ileum or dog fundus
smiles,measurement,setting,value
CC(=O)NNC(=O)N1Cc2ccccc2Oc2ccc(Cl)cc21 [SC-19220],block of the effect of PGE2,[1],not on other tissues
same,block of the effect of PGE2,[2],blocks the effect of PGE2
